Data on 4 compounds can be found in US20240050463A1, “THERAPEUTIC COMPOSITIONS AND METHODS FOR TREATING HEPATITIS B” (ARBUTUS BIOPHARMA CORPORATION, priority 2016, published 2024).

The test system of assay [1] is D type HBV in primary human hepatocytes (PHH). The assay can be described thus: HBV DNA in culture supernatants of HBV-infected primary human hepatocytes (qPCR), MacSynergy. The class given is cell-based. The following applies: for AVERAGE % INHIBITION: HBV DNA, COMPOUND 25 0.00 nM; for inhibition at 0.00012 µM / inhibition at 0.00037 µM / inhibition at 0.00333 µM / inhibition at 0.01 µM: Hepatitis B virus, Hepatocyte; for inhibition at 0.00012 µM: TDF 0.12 nM alone; for inhibition at 0.00037 µM: TDF 0.37 nM alone; for inhibition at 0.00333 µM: TDF 3.33 nM alone; for inhibition at 0.01 µM: TDF 10.00 nM alone. The protocol: (§1) The mouse liver perfusion was applied to isolate PHHs. The isolated hepatocytes were further purified by Percoll. The cells were resuspended with culture media and seeded into the 96-well plates (6×10^4 cell/well) or 48-well plates (1.2×10^5 cell/well). The PHHs were infected with a D type HBV one day post seeding (day 1).
(§2) On day 2, the test compounds were diluted and added into the cell culture plates. The culture media containing the compounds were refreshed every other day. The cell culture supernatants were collected on day 8 for the HBV DNA and antigen determinations.
(§3) The compounds were tested at 7 concentrations, 3-fold dilution, in triplicate.
(§4) Two compounds were tested at 5×5 matrix, in triplicate plates.
DNA in the culture supernatants harvested on days 8 were isolated with QIAamp 96 DNA Blood Kit (Qiagen-51161). For each sample, 100 μl of the culture supernatants was used to extract DNA. The DNA was eluted with 100 μl, 150 μl or 180 μl of AE. HBV DNA in the culture supernatants was quantified by qPCR. The combination effect was analyzed by the MacSynergy software. The primers are described below.
(Real-time PCR tracks product formation cycle by cycle.)

Assay [2] deals with HBV rcDNA in HepDE19 cells. Nature of the assay: Inhibition of rcDNA in HepDE19 cells (bDNA assay), checkerboard, MacSynergy II. Type of assay: cell-based, HBV (human hepatoma cell line). Also on record: key to ADDITIVE INHIBITION: % inhibition of rcDNA production. The following applies: Compound 3 0 μM. Here is the method: In vitro combination studies were conducted using the method of Prichard and Shipman (Prichard M N, and Shipman C Jr., Antiviral Research, 1990, 14(4-5), 181-205; and Prichard M N, et. al., MacSynergy II). HepDE19 cell culture system is a HepG2 (human hepatocarcinoma) derived cell line that supports HBV DNA replication and cccDNA formation in a tetracycline (Tet)-regulated manner and produces HBV rcDNA and a detectable reporter molecule dependent on the production and maintenance of cccDNA (Guo et al 2007. J. Virol 81:12472-12484). HepDE19 (50,000 cells/well) were plated in 96 well collagen-coated tissue-culture treated microtiter plates in DMEM/F12 medium supplemented with 10% fetal bovine serum, 1% penicillin-streptomycin and 1 μg/ml tetracycline and incubated in a humidified incubator at 37° C. and 5% CO2 overnight. Next day, the cells were switched to fresh medium without tetracycline and incubated for 4 hrs at 37° C. and 5% CO2. […] The two inhibitors were tested both singly as well as in combinations in a checkerboard fashion such that each concentration of inhibitor A was combined with each concentration of inhibitor B to determine their combination effects on inhibition of rcDNA production. Following a 7 day-incubation of cells with compound combinations, the level of rcDNA present in the inhibitor-treated wells was measured using a Quantigene 2.0 bDNA assay kit (Affymetrix, Santa Clara, CA) with HBV specific custom probe set and manufacturers instructions. […] The RLU data from the single compound treated cells were analyzed using XL-Fit module in Microsoft Excel to determine EC50 values using a 4-parameter curve fitting algorithm. Concurrently, the effect of compounds on cell viability was assessed using replicate plates, plated at a density of 5,000 cells/well and incubated for 4 days, to determine the ATP content as a measure of cell viability using the cell-titer glo reagent (CTG; Promega Corporation, Madison, WI) as per manufacturer's instructions.
In vitro combination studies were conducted using the method of Prichard and Shipman (Prichard M N, Shipman C, Jr., Antiviral Res, 14, 181-205 (1990)). The HepDE19 cell line was developed as described in Guo et al. (Guo et al., J Virol, 81, 12472-12484 (2007)). It is a human hepatoma cell line stably transfected with the HBV genome, and which can express HBV pregenomic RNA and support HBV rcDNA (relaxed circular DNA) synthesis in a tetracycline-regulated manner. HepDE19 cells were plated in 96 well tissue-culture treated microtiter plates in DMEM/F12 medium supplemented with 10% fetal bovine serum+1% penicillin-streptomycin without tetracycline and incubated in a humidified incubator at 37° C. and 5% CO2 overnight. […] The two inhibitors were tested both singly as well as in combinations in a checkerboard fashion such that each concentration of inhibitor A was combined with each concentration of inhibitor B to determine their combination effects on inhibition of rcDNA production. Following a 48 hour-incubation, the level of rcDNA present in the inhibitor-treated wells was measured using a bDNA assay (Affymetrix) with HBV specific custom probe set and manufacturers instructions. […] Concurrently, the effect of inhibitor combinations on cell viability was assessed using replicate plates that were used to determine the ATP content as a measure of cell viability using the Cell-TiterGlo reagent (Promega) as per manufacturer's instructions.
In vitro combination studies were conducted using the method of Prichard and Shipman (1990) (Prichard M N, Shipman C, Jr. 1990. A three-dimensional model to analyze drug-drug interactions. Antiviral Res 14:181-205 AND Prichard M N. 1992. MacSynergy II, University of Michigan).

For assay [3], the system named is HBsAg secretion in HepG2.2.15 cells. Nature of the assay: Inhibition of HBsAg in HepG2.2.15 cells (CLIA), checkerboard, MacSynergy II. The following applies: for Additive % Inhibition (HBsAg) versus negative control: Trial 3. Type of assay: cell-based, HBV (human hepatoblastoma HepG2 cells). Here is the method: In vitro combination studies were conducted using the method of Prichard and Shipman (Prichard M N, and Shipman C Jr., Antiviral Research, 1990, 14(4-5), 181-205; and Prichard M N, et. al., MacSynergy II). The HepG2.2.15 cell culture system is a cell line derived from human hepatoblastoma HepG2 cells that have been stably transfected with the adw2− subtype HBV genome as previously explained in Sells et al. (Proc. Natl. Acad. Sci. U. S. A, 1987. Vol 84:1005-1009). HepG2.2.15 cells secrete Dane-like viral particles, produce HBV DNA, and also produce the viral proteins, hepatitis B e antigen (HBeAg) and hepatitis B surface antigen (HBsAg).
To test the compound combinations, HepG2.2.15 (30,000 cells/well) were plated in 96 well tissue-culture treated microtiter plates in RPMI+L-Glutamine medium supplemented with 1% penicillin-streptomycin, 20 μg/mL geneticin (G418), 10% fetal bovine serum, and incubated in a humidified incubator at 37° C. and 5% CO2 overnight. […] […] The microtiter cell plates were incubated for a duration of 6 days in a humidified incubator at 37° C. and 5% CO2.
Untreated positive control samples (0.5% DMSO in media) were included on each plate in multiple wells. Following a 6 day-incubation, media was removed from treated cells for use in an HBsAg chemiluminescence immunoassay (CLIA) (Autobio Diagnostics, Cat No. CL0310-2). An HBsAg standard curve was generated to verify that the levels of HBsAg quantification were within the detection limits of the assay. The remaining inhibitor-treated cells were assessed for cytotoxicity by determination of the intracellular adenosine triphosphate (ATP) using a Cell-Titer Glo reagent (Promega) as per manufacturers instructions and by microscopic analysis of the cells throughout the duration of inhibitor treatment. Cell viability was calculated as a percentage of the untreated positive control wells.
The plates were read using an EnVision multimode plate reader (PerkinElmer Model 2104). […] The RLU data from the single compound treated cells were analyzed using XL-Fit module in Microsoft Excel to determine EC50 values using a 4-parameter curve fitting algorithm.

For assay [4], the system named is HBsAg, D type HBV in primary human hepatocytes (PHH). The assay can be described thus: microbe, parasite or virus in culture. The class given is cell-based. To be noted: Hepatitis B virus, Hepatocyte; for inhibition at 0.00012 µM: TDF 0.12 nM alone; for inhibition at 0.00037 µM: TDF 0.37 nM alone. The protocol:
as §1, §2, §3, §4
HBsAg/HBeAg in the culture supernatants harvested on days 8 were measured by the HBsAg/HBeAg ELISA kit (Autobio) according to the manual. The samples were diluted with PBS to get the signal in the range of the standard curve. The inhibition rates were calculated with the formula below. The combination effect was analyzed by the MacSynergy software.
% Inh. HBsAg=[1−HBsAg quantity of sample/HBV quantity of DMSO control]×100.

Setting [5] is: read-out: Additive inhibition, HBsAg.
Setting [6] is: read-out: Average % inhibition, HBsAg.
Where [7] appears, read: read-out: Additive inhibition, HBV DNA.
Setting [8] is: read-out: Average % inhibition, HBV DNA.

Molecules are shown by their SMILES. Structures can show the parent of a compound that is named as a salt. Where two headings read alike, the source gives them in different places.

On to `O=C(Nc1ccc(F)c(F)c1)c1cc(S(=O)(=O)NC2CCCC2)ccc1F` [Compound 22], for which the “AVERAGE % INHIBITION” value in assay [1] (COMPOUND 22 61.73 nM) is listed as −11.75%; in assay [1] (COMPOUND 22 185.19 nM), −9.12%; in assay [1] (COMPOUND 22 555.56 nM), −12.7%; in assay [1] (COMPOUND 22 1666.67 nM), 17.94%; in assay [1] (COMPOUND 22 5000.00 nM) it was 63.06%.

Take `CCOC(=O)C1=C(CN2CCOCC2)NC(c2nccs2)=NC1c1ccc(F)cc1Br` (stereo not shown) [GLS4]: the “ADDITIVE INHIBITION” value in assay [2] (GLS-4 0.007813 μM) is reported as −1.17; in assay [2] (GLS-4 0.01563 μM), −5.82; in assay [2] (GLS-4 0.03125 μM), 7.03; in assay [2] (GLS-4 0.0625 μM), 38.95; in assay [2] (GLS-4 0.125 μM), 77.82; in assay [2] (GLS-4 0.25 μM), 94.65. Moreover, the results for the “ADDITIVE INHIBITION” value in assay [2] (GLS-4 0.5 μM), in assay [2] (GLS-4 1 μM) and in assay [2] (GLS-4 2 μM) were 97.48, 98.51 and 98.22, respectively.

Turning to `COCCCOc1cc2c(cc1OC)-c1cc(=O)c(C(=O)O)cn1[C@H](C(C)C)C2` [Compound 5], the “Additive % Inhibition (HBsAg) versus negative control” value in assay [3] (Compound 5 0.0001 μM alone) stood at 69.99%; in assay [3] (Compound 5 0.000316 μM alone), 82.39%; in assay [3] (Compound 5 0.001 μM alone), 89.01%; in assay [3] (Compound 5 0.00316 μM alone), 90.26%; in assay [3] (Compound 5 0.1 μM alone), 86.26%; in assay [3] (Compound 5 1.0E−05 μM alone), 46.36%. Moreover, the “Additive % Inhibition (HBsAg) versus negative control” value is given as 22.68% in assay [3] (Compound 5 1.00E−06 μM alone), 34.18% in assay [3] (Compound 5 3.16E−06 μM alone) and 56.34% in assay [3] (Compound 5 3.17E−05 μM alone). Also, in assay [3] (Hepatitis B virus, HepG2.2.15, Trial 2, HBsAg by CLIA, read-out: Compound 5 EC50), the EC50 (as a rule, the concentration at which the effect is half-maximal) came out at 5 nM.

With `CC(C)OC(=O)OCOP(=O)(CO[C@H](C)Cn1cnc2c(N)ncnc21)OCOC(=O)OC(C)C` [TDF, tenofovir disoproxil fumarate], the inhibition (in general, the drop in the measured response relative to a control, in per cent) at 0.00012 µM in assay [4] (setting [5]) was -3.31%; in assay [4] (setting [6]) it was -3.31%; in assay [1] (setting [7]), -1.16%; in assay [1] (setting [8]), -1.16%. The inhibition at 0.00037 µM in assay [4] (setting [5]) was -3.32%; in assay [4] (setting [6]) it was -3.32%; in assay [1] (setting [7]), -6.24%; in assay [1] (setting [8]), -6.24%. Further, the inhibition at 0.00333 µM is -1.28% in assay [4] (read-out: Additive inhibition, HBsAg, TDF 3.33 nM alone); -1.28% in assay [4] (read-out: Average % inhibition, HBsAg, TDF 3.33 nM alone); 3.15% in assay [1] (setting [7]); 3.15% in assay [1] (setting [8]). In addition, the inhibition at 0.01 µM in assay [4] (read-out: Additive inhibition, HBsAg, TDF 10.00 nM alone) is -6.65%; in assay [4] (read-out: Average % inhibition, HBsAg, TDF 10.00 nM alone) it was -6.65%; in assay [1] (setting [7]) it was -15.4%; in assay [1] (setting [8]) it was -15.4%.
